Results reported in US7825279B2, “Fused ring dicationic anti-protozoan agents and their prodrugs” (The University of North Carolina at Chapel Hill, priority 2003, dated 2010).
Like-named read-outs stand apart in the source and are kept apart here.

What was measured:
[1] = tested on: poly dA-dT; test: DNA ΔTm poly dA-dT; format: binding; parameters: unit not given here
[2] = tested on: Trypanosoma brucei rhodesiense; test: in vitro IC50 versus Trypanosoma brucei rhodesiense (T.b.r.); format: cell-based
[3] = tested on: Plasmodium falciparum; test: in vitro IC50 versus Plasmodium falciparum (P.f.); format: cell-based
[4] = tested on: virulent STIP90° strain of T.b.r.; test: in vivo T.b.r. mouse model; conditions: for In vivo T.b.r. Cures: cures/animals
[5] = Trypanosoma brucei, RHODESIENSE
[6] = Plasmodium falciparum, in vitro, read-out: P.f. IC50

SMILES | DNA ΔTm poly dA-dT [1] | IC50 [2, 5] [µM] | IC50 ([3]; Plasmodium falciparum, read-out: P.f. IC50) [µM] | In vivo T.b.r. survival days [4] [days] | In vivo T.b.r. Cures [4] | IC50 [3, 6] [µM] | IC50 ([3]; Plasmodium falciparum, in vitro, read-out: IC-50 versus Plasmodium falciparum (p.f.)) [µM] | IC50 [2] [µM] | IC50 ([3]; in vitro, read-out: P.f. IC50) [µM] | IC50 ([2]; Dihydrochloride) [µM]
c1ccc(N=Nc2ccc3c(c2)Cc2cc(N=Nc4ccccc4)ccc2-3)cc1 [Compound 9a, 2,7-Bis[(phenylimino)amino]-9H-fluorene] | 22 | 0.292 | 0.481 | 7 | 0/4 | – | – | – | – | –
Cl.Cl.Cl.N=C(N)Nc1ccc2cc3ccc(NC(=N)N)cc3nc2c1 [Compound 5d, 3,6-bis-guanidinoacridine Trihydrochloride] | 7.7 | 0.067 | – | 16.25 | 0/4 | 0.227 | – | – | – | –
Cl.Cl.N=C(N)Nc1ccc2c(c1)C(=O)c1cc(NC(=N)N)ccc1C2=O [Compound 5c, 2,7-Bis-guanidinoanthraquinone Dihydrochloride] | 7.2 | 0.128 | – | 27 | 0/4 | 0.0235 | – | – | – | –
Cl.Cl.N=C(N)Nc1ccc2c(c1)Cc1cc(NC(=N)N)ccc1-2 [Compound 5a, 2,7-Bis-guanidino-9H-fluorene Dihydrochloride] | 13.6 | 0.024 | – | 6 | 0/4 | 0.0023 | ≤ 0.01 | – | – | –
CC(C)NC(=N)Nc1ccc2c(c1)Cc1cc(NC(=N)NC(C)C)ccc1-2 [Compound 8b, 2,7-Bis(N-iso-propyl)guanidino-9H-fluorene] | 9.3 | – | – | 60 | 4/4 | – | – | 0.0404 | 0.0357 | –
CNC(=N)Nc1ccc2c(c1)Cc1cc(NC(=N)NC)ccc1-2 [Compound 8a, 2,7-Bis(N′-methyl)guanidino-9H-fluorene] | 10.1 | – | – | 52 | 3/4 | – | – | 0.013 | 0.01 | –
Cl.Cl.N=C(N)Nc1ccc2c(c1)C(=O)c1cc(NC(=N)N)ccc1-2 [Compound 5b, 2,7-Bis-guanidinofluoren-9-one Dihydrochloride] | 6.1 | ≤ 0.013 | – | 50.75 | 2/4 | 0.268 | – | – | – | 0.0073
c1ccc(N=Nc2ccc3c(c2)Cc2cc(N=Nc4ccccn4)ccc2-3)nc1 [Compound 9b, 2,7-Bis[(2-pyridylimino)amino]-9H-fluorene] | 15.2 | 0.894 | – | – | – | 1.2 | – | – | – | –
CCOC(=O)NC(=N)Nc1ccc2c(c1)C(=O)c1cc(NC(=N)NC(=O)OCC)ccc1-2 [Compound 7b, 2,7-Bis(N″-ethoxycarbonyl)guanidinofluoren-9-one] | −0.3 | – | – | 6 | 0/4 | – | – | 1.2 | 3.2 | –
CCOC(=O)NC(=NC(C)C)Nc1ccc2c(c1)Cc1cc(NC(=NC(C)C)NC(=O)OCC)ccc1-2 [Compound 7d, 2,7-Bis(N″-ethoxycarbonyl-N′-iso-propyl)guanidino-9H-fluorene] | −0.5 | – | – | 17.75 | 0/4 | – | – | 2.5 | 6.3 | –
CCOC(=O)NC(=N)Nc1ccc2c(c1)Cc1cc(NC(=N)NC(=O)OCC)ccc1-2 [Compound 7a, 2,7-Bis(N″-ethoxycarbonyl)guanidino-9H-fluorene] | 0.3 | – | – | 18.75 | 0/4 | – | – | 1.4 | 2.1 | –
CCOC(=O)NC(=NC)Nc1ccc2c(c1)Cc1cc(NC(=NC)NC(=O)OCC)ccc1-2 [Compound 7c, 2,7-Bis(N″-ethoxycarbonyl-N′-methyl)guanidino-9H-fluorene] | – | – | – | – | – | – | – | 2.9 | 1 | –
